Measured values reported in patent EP4685482A1, “METHOD FOR SELECTING DRUGS FOR THE TREATMENT OF MENTAL HEALTH PATHOLOGIES” (Neomente Corp, priority 2023, dated 2024).

System: Patients diagnosed with unipolar depression
Assay: Clinical follow-up of patients with the SIGH-D-17 scale (treatment as usual vs guided by the Clinical Decision Support System), case examples
Assay type: in vivo
Conditions: for response to treatment regimen (patient history): Example 1: regimen of escitalopram, sertraline, risperidone, clonazepam and lamotrigine
Procedure: Patients diagnosed with unipolar depression were recruited and divided into two groups. The first group Treatment as Usual (TAU) received treatment according to psychiatry clinical guidelines. The second group received Clinical Decision Support System Guided (CCDSg) additional support from the method for selecting neuropsychiatric drugs. Follow-up was conducted using the SIGH-D-17 scale in both groups at the beginning of treatment and 8 and 12 weeks. […]
Based on the algorithm results, it was decided to discontinue the previous pharmacological regimen and initiate a new one consisting of desvenlafaxine and aripiprazole. A significant response was observed within 8 weeks of treatment initiation (69% reduction in SIGH-D-17 scale).
While awaiting the results of the application of this method, pharmacological treatment with sertraline was initiated. […] These findings are consistent with the genetic variations found (alteration of the CYP2C19 enzyme). Subsequently, and with the results of the application of this method, pharmacological treatment with vortioxetine was implemented, achieving remission at 12 weeks.
(53% reduction in SIGH-D-17 scale).

[1] = Example 1: person, severe unipolar depression, new regimen consisting of desvenlafaxine and aripiprazole, within 8 weeks of treatment initiation
[2] = Example 4: person, depressive episode
[3] = Example 3: person, treatment-resistant unipolar depression

SMILES	response (pharmacological history) [3]	response to treatment regimen (patient history)	also measured
O=C1CCc2ccc(OCCCCN3CCN(c4cccc(Cl)c4Cl)CC3)cc2N1 [Aripiprazole]			reduction in SIGH-D-17 scale [1]: 69%
COc1ccc(C(CN(C)C)C2(O)CCCCC2)cc1 (stereo not shown) [Venlafaxine]			response (pharmacological history) [2]: ineffective
CN(C)CCCN1c2ccccc2CCc2ccc(Cl)cc21 [Clomipramine]	no response		
CN[C@H]1CC[C@@H](c2ccc(Cl)c(Cl)c2)c2ccccc21 [Sertraline]		subtherapeutic response	side effects (Example 2: CYP2C19 intermediate metabolizer, treatment had to be discontinued): side effects at low doses
O=C1CN=C(c2ccccc2Cl)c2cc([N+](=O)[O-])ccc2N1 [clonazepam]		subtherapeutic response	response (pharmacological history) [2]: poor response
N#Cc1ccc2[nH]cc(CCCCN3CCN(c4ccc5oc(C(N)=O)cc5c4)CC3)c2c1 [Vilazodone]	no response		
CN(C)CC(c1ccc(O)cc1)C1(O)CCCCC1 (stereo not shown) [Desvenlafaxine]	no response		reduction in SIGH-D-17 scale [1]: 69%
Cc1ccc(Sc2ccccc2N2CCNCC2)c(C)c1 [Vortioxetine]	no response		reduction in SIGH-D-17 scale (Example 2: person, mild unipolar depression, vortioxetine, remission at 12 weeks): 67%
CN(C)C(=O)N[C@H]1CC[C@H](CCN2CCN(c3cccc(Cl)c3Cl)CC2)CC1 [Cariprazine]	no response		
O=c1ccc2ccc(OCCCCN3CCN(c4cccc5sccc45)CC3)cc2[nH]1 [Brexpiprazole]			reduction in SIGH-D-17 scale (Example 3: person, treatment-resistant unipolar depression, quetiapine gradually replaced by brexpiprazole, at 8 weeks of treatment): 53%
Cc1nc2n(c(=O)c1CCN1CCC(c3noc4cc(F)ccc34)CC1)CCCC2 [Risperidone]		subtherapeutic response	
Nc1nnc(-c2cccc(Cl)c2Cl)c(N)n1 [lamotrigine]		subtherapeutic response	response (pharmacological history) [2]: ineffective
CN(C)CCC[C@@]1(c2ccc(F)cc2)OCc2cc(C#N)ccc21 [Escitalopram]	no response	subtherapeutic response	
